33 compounds from ChEMBL document CHEMBL1157915, “Bivalent beta-carbolines as potential multitarget anti-Alzheimer agents” (J Med Chem, 2010) can be followed below.

One series concerns the target Acetylcholinesterase (Electrophorus electricus, UniProt O42275).
Another series has as its target Cholinesterase (Equus caballus, UniProt P81908).
Series [1] can be described thus: Cytotoxicity against mouse L12-G10 cells by MTT assay. Type of series: cell-based. For orientation: Tetrazolium dyes change colour on reduction, which living cells bring about.
Series [2] is described as follows: Cytotoxicity against mouse L12-G10 cells at 50 uM by MTT assay. Type of series: cell-based. Conditions: l12-g10, 50 µM.
In series [3] the target is Glutamate NMDA receptor; GRIN1/GRIN2B (Homo sapiens, UniProt Q05586+Q13224). In words: Displacement of [3H]ifenprodil from human NR1-1a/NR2B receptor expressed in mouse L13-E6 cells. Type of series: cell-based. On the technique in general: Displacement assays read how much labelled ligand stays bound in the presence of the test substance.
Glutamate NMDA receptor; GRIN1/GRIN2B, sequence (Q13224 whole entry, other chains not shown): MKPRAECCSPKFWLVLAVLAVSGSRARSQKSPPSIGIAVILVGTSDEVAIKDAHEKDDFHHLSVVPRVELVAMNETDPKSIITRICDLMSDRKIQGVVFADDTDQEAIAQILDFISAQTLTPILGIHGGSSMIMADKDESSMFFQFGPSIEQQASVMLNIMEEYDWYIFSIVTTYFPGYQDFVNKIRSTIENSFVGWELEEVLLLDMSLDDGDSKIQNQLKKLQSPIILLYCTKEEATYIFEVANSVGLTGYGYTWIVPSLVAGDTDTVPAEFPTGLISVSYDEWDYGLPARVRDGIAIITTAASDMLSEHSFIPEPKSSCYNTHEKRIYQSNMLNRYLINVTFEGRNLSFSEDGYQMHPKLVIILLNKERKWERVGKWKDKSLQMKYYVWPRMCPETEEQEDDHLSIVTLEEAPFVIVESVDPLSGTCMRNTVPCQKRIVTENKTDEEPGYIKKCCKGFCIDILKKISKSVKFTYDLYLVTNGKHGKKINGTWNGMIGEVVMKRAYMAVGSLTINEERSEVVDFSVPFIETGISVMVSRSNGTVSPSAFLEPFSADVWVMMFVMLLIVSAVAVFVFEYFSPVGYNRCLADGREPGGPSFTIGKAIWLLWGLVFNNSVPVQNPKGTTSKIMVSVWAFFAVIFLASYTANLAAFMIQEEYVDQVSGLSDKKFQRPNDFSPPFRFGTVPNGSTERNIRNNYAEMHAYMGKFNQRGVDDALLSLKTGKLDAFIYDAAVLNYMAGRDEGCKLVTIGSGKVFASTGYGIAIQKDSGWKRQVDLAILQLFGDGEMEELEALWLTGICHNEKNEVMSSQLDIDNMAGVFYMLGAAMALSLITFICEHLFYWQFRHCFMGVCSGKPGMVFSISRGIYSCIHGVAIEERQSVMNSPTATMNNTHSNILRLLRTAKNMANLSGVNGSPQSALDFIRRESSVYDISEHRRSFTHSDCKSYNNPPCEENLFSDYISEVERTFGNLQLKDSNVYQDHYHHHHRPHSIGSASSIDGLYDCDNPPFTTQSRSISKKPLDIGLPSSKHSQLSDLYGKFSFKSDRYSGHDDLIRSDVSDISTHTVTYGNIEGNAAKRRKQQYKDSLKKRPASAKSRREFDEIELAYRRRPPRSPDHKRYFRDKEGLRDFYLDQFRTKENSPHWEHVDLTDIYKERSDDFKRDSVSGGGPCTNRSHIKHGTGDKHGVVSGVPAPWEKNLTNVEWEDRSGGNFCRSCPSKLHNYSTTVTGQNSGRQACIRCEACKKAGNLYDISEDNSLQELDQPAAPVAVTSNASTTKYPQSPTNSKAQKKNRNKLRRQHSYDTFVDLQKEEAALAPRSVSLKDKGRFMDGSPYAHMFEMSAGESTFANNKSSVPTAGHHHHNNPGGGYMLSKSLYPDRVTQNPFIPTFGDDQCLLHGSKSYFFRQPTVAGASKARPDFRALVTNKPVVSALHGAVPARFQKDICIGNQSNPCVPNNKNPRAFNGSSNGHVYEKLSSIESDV
Series [4] concerns the target Glutamate NMDA receptor; GRIN1/GRIN2A (Homo sapiens) (UniProt Q05586+Q12879). The note with it: L12-G10, 100 uM.
Description: Inhibition of dexamethasone-induced human NR1-1a/NR2A receptor-mediated excitotoxicity in (S)-glutamate/glycine-stimulated mouse L12-G10 cells assessed as LDH release at 100 uM after 30 mins

“And” between values parts separate entries of the source, which are not always exact repeats. Equal entries are not always repeated.

Acetylcholinesterase, sequence (O42275 whole entry): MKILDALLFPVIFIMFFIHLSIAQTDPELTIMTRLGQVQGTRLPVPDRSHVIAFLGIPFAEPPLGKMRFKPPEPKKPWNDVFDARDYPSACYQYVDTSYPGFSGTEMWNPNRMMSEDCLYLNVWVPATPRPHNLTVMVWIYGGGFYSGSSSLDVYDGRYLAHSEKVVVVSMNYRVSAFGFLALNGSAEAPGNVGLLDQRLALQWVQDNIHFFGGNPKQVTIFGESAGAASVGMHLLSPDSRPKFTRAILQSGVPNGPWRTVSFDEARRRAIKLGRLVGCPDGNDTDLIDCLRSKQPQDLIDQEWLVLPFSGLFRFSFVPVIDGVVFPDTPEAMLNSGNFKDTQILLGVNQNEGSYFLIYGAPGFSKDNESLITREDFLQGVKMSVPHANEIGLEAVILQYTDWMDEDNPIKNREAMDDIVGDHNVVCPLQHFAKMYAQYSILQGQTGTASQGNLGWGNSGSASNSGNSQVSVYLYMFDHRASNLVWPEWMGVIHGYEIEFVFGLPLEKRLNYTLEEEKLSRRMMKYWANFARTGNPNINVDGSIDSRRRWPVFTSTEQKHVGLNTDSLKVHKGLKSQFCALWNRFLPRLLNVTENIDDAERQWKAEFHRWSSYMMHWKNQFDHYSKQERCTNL
Cholinesterase, sequence (P81908 whole entry): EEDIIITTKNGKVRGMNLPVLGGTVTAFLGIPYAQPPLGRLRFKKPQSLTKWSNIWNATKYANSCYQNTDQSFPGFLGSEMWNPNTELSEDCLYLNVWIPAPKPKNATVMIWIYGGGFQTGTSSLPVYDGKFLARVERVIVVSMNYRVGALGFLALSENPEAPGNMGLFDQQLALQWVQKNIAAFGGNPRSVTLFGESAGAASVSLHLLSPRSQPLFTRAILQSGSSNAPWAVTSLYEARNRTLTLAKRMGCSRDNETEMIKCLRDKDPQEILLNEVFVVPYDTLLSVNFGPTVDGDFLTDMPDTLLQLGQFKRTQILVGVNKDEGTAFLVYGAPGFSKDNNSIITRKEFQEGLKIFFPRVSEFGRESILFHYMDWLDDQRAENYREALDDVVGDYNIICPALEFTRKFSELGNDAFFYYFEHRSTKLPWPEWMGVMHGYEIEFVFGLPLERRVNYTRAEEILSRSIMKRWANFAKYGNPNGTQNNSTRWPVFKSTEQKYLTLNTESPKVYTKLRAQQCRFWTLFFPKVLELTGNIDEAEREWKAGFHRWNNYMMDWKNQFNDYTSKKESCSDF
Description for Acetylcholinesterase: Inhibition of electric eel AChE by modified Ellman's method

For the compound `CCn1c2ccccc2c2cc[n+](C)cc21`, the half-inhibitory concentration (IC50) (in general, the midpoint of a concentration-inhibition curve) on Acetylcholinesterase was 2570 nM; against Cholinesterase it was 2020 nM.
On to `CNC1(c2ccccc2Cl)CCCCC1=O` (centres undefined) [KETAMINE], for which, in series [1], the half-maximal cytotoxic concentration (CC50) (usually the concentration at which the toxic effect on the cells reaches its halfway point) was above 100000 nM. In addition, the IC50 on Acetylcholinesterase and on Cholinesterase was above 10000 nM in each case. In series [2], the Activity came to 99.8%.
`C[n+]1ccc2c3ccccc3n(CCCCCCCCCCCCn3c4ccccc4c4cc[n+](C)cc43)c2c1.[I-].[I-]` had a half-maximal cytotoxic concentration (CC50) in series [1] of 33800 nM. The results for the IC50 at Acetylcholinesterase and against Cholinesterase were 1.2 nM and 4 nM, respectively. In series [2], the Activity turned out to be 52.9%.
As for `[Br-].[Br-].c1ccc2c(c1)[nH]c1c[n+](CC[n+]3ccc4c(c3)[nH]c3ccccc34)ccc12`, the CC50 in series [1] was above 100000 nM. In addition, the IC50 against Acetylcholinesterase is 430 nM; at Cholinesterase, 319 nM. The compound further came in with an Activity in series [2] of 76.6%.
In the case of `c1ccc2c(c1)c1ccncc1n2CCCCCn1c2ccccc2c2ccncc21`, the IC50 against Acetylcholinesterase was above 10000 nM; at Cholinesterase, above 1000 nM.
In turn, `CC12CC3CC(C)(C1)CC(N)(C3)C2` [MEMANTINE] gave a cytotoxic concentration (CC50) in series [1] above 100000 nM. In addition, the half-inhibitory concentration (IC50) against Acetylcholinesterase and against Cholinesterase was above 10000 nM each time. The Activity in series [2] came to 100.4%.
Regarding `C[n+]1ccc2c3ccccc3n(CCCCCCCCCn3c4ccccc4c4cc[n+](C)cc43)c2c1.[I-].[I-]`, the CC50 in series [1] is above 100000 nM. The same compound came in with an Activity in series [2] of 78.9%.
With `c1ccc2c3c([nH]c2c1)CN(CCCCCN1CCc2c([nH]c4ccccc24)C1)CC3`, the concentration for half-maximal inhibition (IC50) against Acetylcholinesterase and against Cholinesterase was above 1000 nM throughout.
In series [1], `[Br-].[Br-].c1ccc2c(c1)[nH]c1c[n+](CCCCCCCCC[n+]3ccc4c(c3)[nH]c3ccccc34)ccc12` returned a CC50 above 100000 nM. Further, the figures for the IC50 on Acetylcholinesterase and against Cholinesterase were 125 nM and 40 nM, respectively. This compound also registered an Activity in series [2] of 73.8%.
The corresponding values for `[Br-].[Br-].c1ccc2c(c1)[nH]c1c[n+](CCCC[n+]3ccc4c(c3)[nH]c3ccccc34)ccc12` are above 100000 nM, 278 nM, 78 nM and 78.2%.
`c1ccc2c3c([nH]c2c1)CN(CCCCCCCCCCN1CCc2c([nH]c4ccccc24)C1)CC3`: the results for the half-inhibitory concentration (IC50) against Acetylcholinesterase and on Cholinesterase were above 1000 nM and 2900 nM, respectively.
Take `c1cc[n+](CCCCCC[n+]2ccc3c(c2)[nH]c2ccccc23)cc1`: the half-inhibitory concentration (IC50) on Acetylcholinesterase came to 564 nM; at Cholinesterase, 6330 nM.
In series [1], `[Br-].[Br-].c1ccc2c(c1)[nH]c1c[n+](CCOCCOCCOCC[n+]3ccc4c(c3)[nH]c3ccccc34)ccc12` returned a CC50 above 100000 nM. Also, the results for the IC50 against Acetylcholinesterase and on Cholinesterase were 3140 nM and 195 nM, respectively. The same compound returned an Activity in series [2] of 98.6%.
`[Br-].[Br-].c1ccc2c(c1)[nH]c1c[n+](CCC[n+]3ccc4c(c3)[nH]c3ccccc34)ccc12`: the cytotoxic concentration (CC50) in series [1] is above 100000 nM. Also, the results for the half-maximal inhibitory concentration (IC50) against Acetylcholinesterase and against Cholinesterase were 7660 nM and 652 nM, respectively. This compound came in with an Activity in series [2] of 82.5%.
On to `C[n+]1ccc2c3ccccc3n(CCCCCn3c4ccccc4c4cc[n+](C)cc43)c2c1`, for which the concentration for half-maximal inhibition (IC50) worked out at 280 nM against Acetylcholinesterase and 19 nM against Cholinesterase.
The corresponding values for `CCC[n+]1ccc2c(c1)[nH]c1ccccc12` are 845 nM and 2310 nM.
In series [1], `[Br-].[Br-].c1ccc2c(c1)[nH]c1c[n+](CCCCCC[n+]3ccc4c(c3)[nH]c3ccccc34)ccc12` yielded a CC50 above 100000 nM. The inhibition constant Ki (usually a measure of affinity in units of concentration, obtained from inhibition or displacement) in series [3] came to 20000 nM. Moreover, the half-maximal inhibitory concentration (IC50) against Acetylcholinesterase was determined as 248 nM; at Cholinesterase, 186 nM. Moreover, in series [2], the Activity was 75%.
In series [1], `[Br-].[Br-].c1ccc2c(c1)[nH]c1c[n+](CCCCCCCC[n+]3ccc4c(c3)[nH]c3ccccc34)ccc12` registered a 50% cytotoxic concentration (CC50) of 54200 nM. In addition, the IC50 at Acetylcholinesterase stood at 113 nM; at Cholinesterase, 75 nM. The compound further had an Activity in series [2] of 51.8%.
In turn, `c1ccc2c(c1)c1ccncc1n2CCCCCCCCCCCCn1c2ccccc2c2ccncc21` came in with a cytotoxic concentration (CC50) in series [1] above 100000 nM. The 50% inhibitory concentration (IC50) at Acetylcholinesterase and against Cholinesterase was above 10000 nM in each case. Moreover, the Activity in series [2] was determined as 100.2%.
Take `c1cc[n+](CCCCCC[n+]2ccccc2)cc1`: the half-maximal inhibitory concentration (IC50) against Acetylcholinesterase and at Cholinesterase was above 10000 nM in each case.
Take `Oc1ccc2[nH]c3c[n+](CCCCC[n+]4ccc5c(c4)[nH]c4ccc(O)cc45)ccc3c2c1.[Br-].[Br-]`: in series [1], the CC50 is above 100000 nM. Also, the IC50 at Acetylcholinesterase is 4260 nM; against Cholinesterase, 1630 nM. In series [2], this compound had an Activity of 71.8%.
Consider `[Br-].[Br-].c1ccc2c(c1)[nH]c1c[n+](CCCCCCC[n+]3ccc4c(c3)[nH]c3ccccc34)ccc12`, for which the CC50 in series [1] is above 100000 nM. For the same compound, the IC50 was 81 nM against Acetylcholinesterase and 65 nM against Cholinesterase. In series [2], this compound yielded an Activity of 80.1%.
In turn, `[Br-].[Br-].c1ccc2c(c1)[nH]c1c[n+](Cc3ccc(C[n+]4ccc5c(c4)[nH]c4ccccc45)cc3)ccc12` yielded a CC50 in series [1] above 100000 nM. For the same compound, the IC50 at Acetylcholinesterase was 147 nM; against Cholinesterase, 439 nM and 473 nM. The compound also returned an Activity in series [2] of 83.2%.
On to `[Br-].[Br-].c1ccc2c(c1)[nH]c1c[n+](CCCCCCCCCCCC[n+]3ccc4c(c3)[nH]c3ccccc34)ccc12`, for which, in series [1], it took 35100 nM to reach half-maximal cytotoxicity (CC50). The half-inhibitory concentration (IC50) stood at 86 nM on Acetylcholinesterase and 22 nM against Cholinesterase. Moreover, the Activity in series [2] worked out at 38%.
In series [1], `C[C@]12N[C@H](Cc3ccccc31)c1ccccc12` [DIZOCILPINE] yielded a CC50 above 100000 nM. In addition, in series [2], the Activity is 100.3%.
As to `C[n+]1ccc2c(c1)[nH]c1ccccc12`, the concentration for half-maximal inhibition (IC50) at Acetylcholinesterase was above 10000 nM; against Cholinesterase, 540 nM.
In the case of `[Br-].[Br-].c1ccc2c(c1)[nH]c1c[n+](CCCCCCCCCCC[n+]3ccc4c(c3)[nH]c3ccccc34)ccc12`, the CC50 in series [1] is above 100000 nM. Also, the values for the IC50 at Acetylcholinesterase and against Cholinesterase were 92 nM and 18 nM, respectively. The Activity in series [2] came out at 60.3%.
The corresponding values for `[Br-].[Br-].c1ccc2c(c1)[nH]c1c[n+](CCCCCCCCCC[n+]3ccc4c(c3)[nH]c3ccccc34)ccc12` are above 100000 nM, 63 nM, 49 nM and 67.5%.
Consider `CCn1c2ccccc2c2ccncc21`, for which the IC50 on Acetylcholinesterase is above 1000 nM; against Cholinesterase, above 10000 nM.
In series [1], `c1ccc2c(c1)c1ccncc1n2CCCCCCCCCn1c2ccccc2c2ccncc21` came in with a half-maximal cytotoxic concentration (CC50) above 100000 nM. The Activity in series [2] is recorded as 67.7%.
`[Br-].[Br-].c1ccc2c(c1)[nH]c1c[n+](CCCCC[n+]3ccc4c(c3)[nH]c3ccccc34)ccc12` displayed a half-maximal cytotoxic concentration (CC50) in series [1] above 100000 nM. The IC50 was 595 nM against Acetylcholinesterase; 48.9 nM and 48 nM at Cholinesterase. The compound further had an Activity in series [2] of 92.4%.
With `NCCCNCCCCNCCCN`, the inhibition (in general, the relative decrease from the control value, in per cent) in series [4] worked out at 108%.
As to `COc1ccc2[nH]c3c[n+](CCCCC[n+]4ccc5c(c4)[nH]c4ccc(OC)cc45)ccc3c2c1.[Br-].[Br-]`, the half-maximal cytotoxic concentration (CC50) in series [1] is above 100000 nM. For the same compound, the half-maximal inhibitory concentration (IC50) is above 10000 nM on Acetylcholinesterase and 319 nM at Cholinesterase. Besides, the Activity in series [2] is 84.1%.
